Laboratory results reported in PMC11845477, “Exploring the principles behind antibiotics with limited resistance” (Nature Communications, 2025).
“And” between values parts separate entries of the source, which are not always exact repeats. Identical values can stand only once. Like-named read-outs stand apart in the source and are kept apart here. Where a SMILES comes first, the peptide text is derived from it. Bridges are numbered along the chain shown (N, C = ends). [ ]: non-standard residue; d: D form. The star is where a group is joined. X1 = NC[C@@H](CC(=O)*)c1cccc(Cl)c1; X2 = CC[C@H](C)CCCCC(=O)*; Dab = NCC[C@H](N)C(=O)O; Dap = NC[C@H](N)C(=O)O

Tests used:
[1] = tested on: P. aeruginosa; format: cell-based, Pseudomonas aeruginosa
Method: We employed image analysis to quantify bacterial survival under fixed antibiotic concentrations (10xMIC for 4 hours) on E. coli, A. baumannii, K. pneumoniae, and P. aeruginosa. […] Survival rate was quantified by calculating the ratio of the viable cells after antibiotic treatment and the total initial viable cell count.
Fig. 9 Killing kinetics of the studied antibiotics. a Bacterial survival rate in response to toxic antibiotic exposure. […] The bars indicate the survival rate (log10) compared to the untreated initial viable cell count (see “Methods”). Data are presented as mean values of 5 biological replicates ± SEM. The antibiotic group differentiation is denoted by color. […] Survival was estimated by measuring cell viability (colony-forming units/ml) of 2 biologically independent strains following a 4-hour exposure to different concentrations of 16 antibiotics on E. coli ATCC25922 (for further details, see “Methods”). The antibiotic concentration that kills 99.9% of the E. coli population is indicated as a vertical dotted line (see Supplementary Data 5). Error bars represent standard error calculated from the colony counts by Poisson’s model. A Hill function was fitted to the dose-response data from two biological replicates, producing sigmoidal curves (Supplementary Data 5). The Hill coefficient reflects how steeply the survival rate decreases in response to increasing antibiotic concentration ([…]). […] X-axis label colors indicate mode of action groups. For detailed information on antibiotic and bacterial species, see Supplementary Data 1. Source data are provided as a Source Data file.
In this current study, the killing kinetics of each antibiotic was measured according to a previously established experimental protocol[62] with minor modifications. During this assay, the bacterial cultures were exposed to antibiotics in 96-well assay plates and their viability after 4 hours of exposure was quantified by two methods: i) microplating and colony counting or ii) fluorescent staining of cells and counting of the fluorescent units.
Specifically, these experiments were performed in the following steps: (1) Preparation of bacterial stocks. Single colonies from each strain were isolated and grown overnight in MHB medium at 37 °C, 160 rpm. In case of the fluorescently tagged E. coli strains, the medium was supplemented with 10 μg/mL chloramphenicol, to maintain the pZS2R plasmid. Overnight cultures were diluted 1:5000 and grown to an optical density at 600 nm (OD600) of 0.25. These cultures were concentrated by centrifugation and small aliquots of 50 μL containing ~2.2 × 10^9 cells were frozen in glycerol (stored at −80 °C). (2) Preparing assay plates with antibiotics. 96-well plates were filled with 235 μL MHB and supplemented with antibiotics using an automated digital dispenser (D300e, Tecan). In the case of SCH79797, we used minimal media. […] For testing the clearance efficacy of each antibiotic at a single lethal dose, the 10x of the MIC for each antibiotic-strain pair were prepared in at least three replicates. (3) Antibiotic exposure. During the dose response assay, frozen cultures of the E. coli strains expressing YFP and mCherry were thawed and mixed at a 1:1 ratio, diluted 1:1000 in 30 mL MHB and incubated for 45 min at 37 °C and 160 rpm. During the single-dose assay, the frozen cultures of experimental strains (E. coli, K. pneumoniae, A. baumannii) were also thawed and diluted 1:1000 in 30 mL MHB and incubated at 37 °C to reach an OD of 0.25 and 160 rpm. Following this incubation phase, these bacterial cultures were then aliquoted into the 96-well deep-well antibiotic plates (15 μL culture; total volume of 250 μL) at an inoculum density of about 10^7 CFU.

[2] = tested on: polymyxin B-resistant lines of E. coli (EC-SEN); test: Cross-resistance of polymyxin B resistant evolved lines, relative MIC; format: cell-based, Escherichia coli
Method: 3 independently evolved lines from each investigated species were studied, including E. coli (EC), K. pneumoniae (KP), A. baumannii (AB), and P. aeruginosa (PA). […] The distances between antibiotics were computed using the Euclidean distance method based on the log-transformed MIC values. The clustering was performed using the complete linkage method. […] For detailed information on antibiotic and bacterial strain abbreviations, see Supplementary Data 1. Source data are provided as a Source Data file.
A robotic liquid handling system was used to automatically prepare a 11 to 16-step serial dilution in 384-well microtiter plates (Greiner). A final concentration of 5 × 10^5 bacterial cells per mL were inoculated into each well containing 60 µL MHB medium. Bacterial cultures were incubated at 37 °C with continuous shaking (Infors shaker, 900 rpm with 3 mm throw) for 18 hours (2 replicates from each). Cell growth was monitored by measuring the optical density (OD600 values, using Biotek Synergy microplate reader). MIC was defined as the antibiotic concentration of complete growth inhibition (i.e., OD600 < 0.05). Relative MIC was calculated as follows:1 relativeMIC=MICevolved/MICancestor […]
Each data point represents a distinct
Boxplots show the median, first and third quartiles, with whiskers showing the 5th and 95th percentiles. P values were calculated using Dunn's post-hoc test with Benjamini-Hochberg correction (NS indicates p > 0.05, ** / **** indicates p < 0.01 […]
For detailed information on antibiotic and bacterial strain abbreviations, see Supplementary Table 1. Source data are provided as a Source […]
(1 picture or pasted object on this page, not shown here)

[3] = tested on: mutated genes in antibiotic-adapted lines; test: Whole genome sequencing and comparative mutational analysis of adapted lines; conditions: lines adapted in laboratory evolution
From the text: We focused on the resistance mechanisms of DT permeabilizers and ST permeabilizers (Fig. 5a), as these antibiotics commonly disintegrate the bacterial membrane, and therefore the resistance mechanisms may overlap.
Genes are categorized based on their cellular localization using PSORT (Protein Subcellular Localization Prediction Tool). They are further classified according to their involvement in specific metabolic or resistance pathways using the KEGG (Kyoto Encyclopedia of Genes and Genomes) and COG (Clusters of Orthologous Genes) databases.
To identify potential antibiotic resistance mutations, we selected 2 to 5 lines from the frequency-of-resistance (FoR) and adaptive laboratory evolution (ALE) experiments for whole genome sequencing. Resistant populations were grown overnight in antibiotic-free medium, and DNA was isolated using the GenElute Bacterial Genomic DNA Kit (Sigma), following the manufacturer’s instructions. DNA was eluted in 120 µl of RNAse-free water over two elution steps, and 60 µl of the eluted DNA was further concentrated using the Zymo DNA Clean and Concentrator Kit. DNA concentration was measured with a Qubit Fluorometer and set to 1 ng/µl per sample. Sequencing libraries were prepared using the Nextera XT DNA library preparation kit (Illumina) and sequenced on an Illumina NextSeq 500 platform, generating 2 × 150 bp paired-end reads.
To identify and annotate variants, sequencing reads were mapped to their corresponding reference genomes using the Burrows-Wheeler Aligner (BWA)[75]. PCR duplicates were removed using Picard Mark Duplicates (see http://broadinstitute.github.io/picard) and reads with more than 6 mismatches were discarded. Variants (SNPs and INDELs) were called with Freebayes[76] and filtered using vcffilter[77], retaining only those with a quality score above 100. Rare variants were not excluded, but potential artefacts were manually inspected using IGV[78]. Variants were annotated with SnpEf, keeping only those absent in the ancestor. Mutations appearing in more than nine lines were excluded, as these were likely present in the ancestor. […]

[4] = EC-SEN, polymyxin B-resistant evolved line 4, MIC evolved/MIC ancestor
[5] = EC-SEN, polymyxin B-resistant evolved line 6, MIC evolved/MIC ancestor
[6] = EC-SEN, polymyxin B-resistant evolved line 10, MIC evolved/MIC ancestor
[7] = polymyxin B-resistant evolved line 4 of EC-SEN, MIC relative to ancestor
[8] = polymyxin B-resistant evolved line 6 of EC-SEN, MIC relative to ancestor
[9] = polymyxin B-resistant evolved line 10 of EC-SEN, MIC relative to ancestor

Nc1nc(-n2cc(C(=O)O)c(=O)c3cc(F)c(N4CC(O)C4)c(Cl)c32)c(F)cc1F [Delafloxacin]
Survival rate (log10) ([1]; Pseudomonas aeruginosa, survival at 10xMIC for 4 hours, single replicates, (fig 9a source data), listed as DEL): -0.244 log10 and -0.1736 log10 and -0.08683 log10 and -0.3488 log10 and -0.1122 log10

CN(C)[C@@H]1C(O)=C(C(N)=O)C(=O)[C@@]2(O)C(O)=C3C(=O)c4c(O)c(NC(=O)CN5CCCC5)cc(F)c4C[C@H]3C[C@@H]12 [Eravacycline]
Survival rate (log10) ([1]; Pseudomonas aeruginosa, survival at 10xMIC for 4 hours, single replicates, (fig 9a source data), listed as ERA): -0.509 log10 and -0.5518 log10 and -0.8039 log10 and -0.6612 log10 and -0.7582 log10

CNC(C)C1CCC(N)C(OC2C(N)CC(N)C(OC3OCC(C)(O)C(NC)C3O)C2O)O1 (stereo not shown) [Gentamicin]
Survival rate (log10) ([1]; Pseudomonas aeruginosa, survival at 10xMIC for 4 hours, single replicates, (fig 9a source data), listed as GEN): -0.02375 log10 and -0.1205 log10 and -0.1516 log10 and -0.09697 log10 and -0.6642 log10

CC[C@H](C)CCCCC(=O)N[C@@H](CCN)C(=O)N[C@H](C(=O)N[C@@H](CCN)C(=O)N[C@H]1CCNC(=O)[C@H]([C@@H](C)O)NC(=O)[C@H](CCN)NC(=O)[C@H](CCN)NC(=O)[C@H](CC(C)C)NC(=O)[C@@H](Cc2ccccc2)NC(=O)[C@H](CCN)NC1=O)[C@@H](C)O [Polymyxin B] (X2-[Dab]T[Dab][Dab][Dab][dF]L[Dab][Dab]T; lactam 4-C (inferred); N-terminus assumed)
Relative MIC [2, 4]: 64 | Relative MIC [2, 5]: 32 | Relative MIC [2, 6]: 32 | Relative MIC [2, 7]: 64 | Relative MIC [2, 8]: 32 | Relative MIC [2, 9]: 32 | Survival rate (log10) ([1]; Pseudomonas aeruginosa, survival at 10xMIC for 4 hours, single replicates, (fig 9a source data), listed as PMB): -6 log10 and -3.379 log10

CC(C)c1ccc(Cn2ccc3c4c(N)nc(NC5CC5)nc4ccc32)cc1 [SCH79797]
overlap in the set of mutated genes associated with ST permeabilizers [3]: 0.6% | Relative MIC [2, 4]: 1 | Relative MIC [2, 5]: 1 | Relative MIC [2, 6]: 1 | Relative MIC [2, 7]: 1 | Relative MIC [2, 8]: 1 | Relative MIC [2, 9]: 1

CC(C)C[C@@H]1NC(=O)[C@@H](Cc2ccccc2)NC(=O)[C@H](CCN)NC(=O)[C@@H](NC(=O)[C@H](CN)NC(=O)[C@@H](NC(=O)C[C@H](CN)c2cccc(Cl)c2)[C@@H](C)O)CCNC(=O)[C@H]([C@@H](C)O)NC(=O)[C@H](CCN)NC(=O)[C@H](CCN)NC1=O [SPR206] (X1-T[Dap][Dab][Dab][dF]L[Dab][Dab]T; lactam 3-C (inferred); N-terminus assumed)
Relative MIC [2, 4]: 32 | Relative MIC [2, 5]: 64 | Relative MIC [2, 6]: 64 | Relative MIC [2, 7]: 32 | Relative MIC [2, 8]: 64 | Relative MIC [2, 9]: 64 | Survival rate (log10) ([1]; Pseudomonas aeruginosa, survival at 10xMIC for 4 hours, single replicates, (fig 9a source data), listed as SPR): -6 log10 and -2.301 log10 and -2.534 log10 and -2.682 log10

POL7306
overlap in the set of mutated genes associated with ST permeabilizers [3]: 8.12% | Relative MIC [2, 4]: 1 | Relative MIC [2, 5]: 2 | Relative MIC [2, 6]: 2 | Relative MIC [2, 7]: 1 | Relative MIC [2, 8]: 2 | Relative MIC [2, 9]: 2 | Survival rate (log10) [1]: -6 log10 | Survival rate (log10) ([1]; Pseudomonas aeruginosa, survival at 10xMIC for 4 hours, single replicates, (fig 9a source data), listed as POL): -2.602 log10 and -2.902 log10 and -2.057 log10

Tridecaptin M152-P3
overlap in the set of mutated genes associated with ST permeabilizers [3]: 2.5%

colistin
Relative MIC [2, 5]: 32 | Relative MIC [2, 6]: 32 | Relative MIC [2, 8]: 32 | Relative MIC [2, 9]: 32 | bacterial survival after toxic antibiotic exposure ([1]; 10xMIC for 4 hours): eliminate the full bacterial population | Survival rate (log10) ([1]; Pseudomonas aeruginosa, survival at 10xMIC for 4 hours, single replicates, (fig 9a source data)): -6 log10
